From US7816520B2, “5,6-diphenyl-1,2,4-triazinic dimeric derivatives and the use thereof in the form of sun-protective agents” (Pierre Fabre Dermo-Cosmetique, priority 2004, dated 2010)
Several values for one entry are separate records, joined by “and”; a condition that tells them apart may be missing. Identical values can stand only once.

Legend:
[1] = In vitro SPF measurement in a chemical solvent (Diffey and Robson); settings: ethyl acetate, 10 μg/ml, transmittance 290-400 nm
Protocol: The in vitro methods of determining the protective effectiveness of sun products consist of measuring by transmission spectrophotometry the absorption spectrum of the filter in solution or of the product applied on a substrate with the aim of simulating the surface of the skin. The effectiveness against UVB and/or UVA rays, or the effect on the cutaneous response, are then determined by calculation, taking into account or not the UV radiation action spectrum for the damage considered.
The Sayre/Agin and Diffey/Robson method, used since the 1990s, involves a comparative measurement, with the aid of an integrating-sphere spectroradiometer, of the transition from 290 nm to 400 nm in 5 nm steps, the sample being subjected to UV radiation from a stable known source covering the whole of the UV spectrum (unfiltered xenon).
Diffey and Robson evaluate the erythemal response by the following calculation:
[formula] E(λ)=spectral irradiation in W(m-^2) (nm^−1) at 40° N sun at 20° zenith angle • ε=erythematous capacity
[formula] N(λ)=number of values for a given wavelength
The Diffey and Robson formula makes it possible to determine SPF from the measurement of transmittance between 290 nm and 400 nm. Transmittance is measured in solution in ethyl acetate at a concentration of 10 μg/ml using a UV-visible spectrophotometer (Varian CARY 50 Scan).
[formula] T(λ)=transmittance at wavelength λ

[2] = Photostability in solution in a chemical solvent (Suntest CPS+); type: physicochemical; settings: 25 μg deposited from methanol, absorbance vs non-irradiated control, in % (unit assumed); for Photostability at 5 MED, mean: Suntest irradiation 5 MED; for Photostability at 10 MED, mean: Suntest irradiation 10 MED
From the text: A Suntest CPS+(Atlas, Linsengenicht/Altenhasslan, Germany) was used. The Suntest makes it possible to reproduce the solar spectrum and thus to carry out exposures inside at any time without weather constraints.
The radiance of the solar simulator was carefully measured with a spectroradiometer (MSS 2044, Bielefeld, Germany). UVB and UVA intensities were 0.49 mW/cm^2 and 6.32 mW/cm^2, respectively. The MED value defined by COLIPA is 5.6 J/cm^2 in total UV (22). The UV total (UVA+UVB) accounts for 14.8% of the energy delivered by the lamp (power 460 W/m^2). An irradiation dose equivalent to 1 MED corresponds to 37.83 J/cm^2 (in total spectrum) delivered by the lamp.
The Suntest test duration is calculated using the following formula: t=H/E with: • E=illumination energy in W/m^2 • H=irradiation dose in J/m^2 • t=duration of the test in s
The solutions of the compounds are prepared at a concentration of 500 μg/ml in methanol. 50 μl (25 μg) of each solution are deposited in a crystallizer, then irradiated in the Suntest at 5, 10 and/or 20 MED. A non-irradiated control is prepared (deposit of 50 μl of solution and addition of 2.450 ml of methanol). The solvent evaporates during irradiation and the products are taken up in 2.5 ml of methanol. After irradiation, the absorbance of each solution is measured with the UV-visible spectrophotometer (Varian CARY 50 Scan).

[3] = Solubility study in solvents or excipients used in cosmetics; type: physicochemical; settings: for Solubilities: Soluble (solvent in which the compound is soluble): value = solvent; for Solubilities: Insoluble (solvent in which the compound is insoluble): value = solvent named in the Insoluble column
[4] = Spectral characteristics: molar extinction coefficient and specific absorbance (UV spectrophotometry in ethyl acetate); type: physicochemical; settings: 10 μg/ml; for Maximum molar extinction coefficient UVA / Maximum specific absorbance UVA: UVA band; for Maximum molar extinction coefficient UVB / Maximum specific absorbance UVB: UVB band
From the text: The calculation of the molar extinction coefficient (ε) is made from the Beer-Lambert law:
[formula] Wherein: • A=absorbance • I0=intensity of the incident light • I=intensity of the transmitted light • ε=molar extinction (or molar absorbance) coefficient in M^−1 cm^−1 • l=path length in cm • c=concentration in mol/l
The molar extinction coefficient can be expressed with respect to a given mass of the product. It thus makes it possible to be able to compare the coefficients of extinction between products for the same given quantity. This quantity is 1% by weight. The molar extinction coefficient thus becomes the specific absorbance (A1cm^1%).
It is expressed as follows:
[formula] Wherein: • A1cm^1%=specific absorbance • ε=molar extinction coefficient • M=molar mass
The spectral characteristics of the compounds in comparison with commercial filters at a concentration of 10 μg/ml are summarized in tables 2-1 and 2-2.
Procedure: The products are dissolved in ethyl acetate to a concentration of 10 μg/ml. The spectra are measured using a dual-beam spectrophotometer (Varian CARY 50 Scan) between 290 nm and 400 nm.

[5] = Spectral distribution in UVA and UVB, 290 nm to 400 nm; type: physicochemical; settings: for Absorption peaks: range from 290 nm to 400 nm; for Spectral distribution (UV bands absorbed): absorption spectra, FIGS. 1-3
From the text: The products tested are classified according to spectral distribution in UVA and UVB in a range from 290 nm to 400 nm. It is possible to differentiate them according to their spectral distribution: Products with a narrow spectrum: • Products absorbing in the range between 280 nm and 320 nm (UVB) • Products absorbing in the range between 320 nm and 400 nm (UVA) Products with a broad spectrum: • Products absorbing in UVB (280-320 nm) and UVA-II […] • Products covering UVB and UVA (280-400 nm).

[6] = excipient Finsol V NT ® (C12-C15 alkyl benzoate)
[7] = excipient PEG400 ® (polyethylene glycol)

| Molecule | SPF [1] | Photostability at 5 MED, mean [2] | Photostability at 10 MED, mean [2] | Solubility (%) [3, 6] | Solubility (%) [3, 7] | Solubilities: Soluble (solvent in which the compound is soluble) [3] | Solubilities: Insoluble (solvent in which the compound is insoluble) [3] | Maximum molar extinction coefficient UVA [4] | Maximum specific absorbance UVA ([4]; A1cm^1%) | Wavelength of maximum molar extinction coefficient UVA ([4]; the 'at ...' part of the cell) | Wavelength of maximum specific absorbance UVA ([4]; the 'at ...' part of the cell) | Absorption peaks [5] | Maximum molar extinction coefficient UVB [4] | Maximum specific absorbance UVB ([4]; A1cm^1%) | Wavelength of maximum molar extinction coefficient UVB ([4]; the 'at ...' part of the cell) | Wavelength of maximum specific absorbance UVB ([4]; the 'at ...' part of the cell) | Spectral distribution (UV bands absorbed) [5] | also measured |
| --- | --- | --- | --- | --- | --- | --- | --- | --- | --- | --- | --- | --- | --- | --- | --- | --- | --- | --- |
| 1,4-bis[5,6-(4,4′-dihexyl)-diphenyl-1,2,4-triazin-3-yl]benzene [WP96] | 68.02 | 83.30 | 74.35 | 1% | 2% | DMC and CHCl3 and Et2O and Toluene and Octanol and Methanol | EtOH and Myritol and Acetic acid | – | – | – | – | – | – | – | – | – | – | Solubility (%) ([3]; excipient Myritol 318 ® (caprylic/capric triglycerides)): 0.1%; Solubilities: Soluble, Transcutol ([3]; solvent Transcutol): Transcutol 0.5% |
| COc1ccc(C(=O)CC(=O)c2ccc(C(C)(C)C)cc2)cc1 [Parsol 1789 ®, reference compound] | 51.1 | – | – | – | – | – | – | 34100 M⁻¹ cm⁻¹ | 1100 | at 360 nm | at 360 nm | 360 nm | – | – | – | – | – | Maximum molar extinction coefficient UVC ([4]; UVC band): 8633 at M^−1 cm^−1; Maximum specific absorbance UVC ([4]; A1cm^1%, UVC band): 278 at; Wavelength of maximum molar extinction coefficient UVC ([4]; the 'at ...' part of the cell): 275 nm; Wavelength of maximum specific absorbance UVC ([4]; the 'at ...' part of the cell): 275 nm |
| CCCCC(CC)COC(=O)C=Cc1ccc(OC)cc1 (stereo not shown) [Parsol MCX ®, reference compound] | 20.78 | – | – | – | – | – | – | – | – | – | – | 310 nm | 24600 M⁻¹ cm⁻¹ | 848 | at 310 nm | at 310 nm | – | – |
| CC(C)(C)CC(C)(C)c1cc(Cc2cc(C(C)(C)CC(C)(C)C)cc(-n3nc4ccccc4n3)c2O)c(O)c(-n2nc3ccccc3n2)c1 [Tinosorb M ®, reference compound] | 54.07 | – | – | – | – | – | – | 36400 M⁻¹ cm⁻¹ | 552 | at 345 nm | at 345 nm | – | 36600 M⁻¹ cm⁻¹ | 556 | at 305 nm | at 305 nm | – | – |
| CCCCC(CC)COc1ccc(-c2nc(-c3ccc(OC)cc3)nc(-c3ccc(OCC(CC)CCCC)cc3O)n2)c(O)c1 (stereo not shown) [Tinosorb S ®, reference compound] | 76.19 | – | – | – | – | – | – | 49580 M⁻¹ cm⁻¹ | 789 | at 345 nm | at 345 nm | – | 41750 M⁻¹ cm⁻¹ | 751 | at 310 nm | at 310 nm | – | – |
| c1ccc(-c2nnc(-c3cccc(-c4nnc(-c5ccccc5)c(-c5ccccc5)n4)c3)nc2-c2ccccc2)cc1 [WP76, 1,3-bis(5,6-diphenyl-1,2,4-triazin-3-yl)benzene] | – | 69.23 | 62.53 | – | – | DMSO or hot DMF | Water and MeOH and CHCl3 and Acetone and Acetonitrile and Benzene | – | – | – | – | 290 nm | 54000 M⁻¹ cm⁻¹ | 998 | at 290 nm | at 290 nm | absorbs in UVB | – |
| CC(C)(C)c1ccc(-c2nnc(-c3ccc(-c4nnc(-c5ccc(C(C)(C)C)cc5)c(-c5ccc(C(C)(C)C)cc5)n4)cc3)nc2-c2ccc(C(C)(C)C)cc2)cc1 [WP104, 1,4-bis[5,6-(4,4′-4-di-tert-butyl)-diphenyl-1,2,4-triazin-3-yl]benzene] | 79.35 | 93.70 | 88.55 | – | – | DCM and CHCl3 and Toluene and DMSO and Ethyl acetate | EtOH and MeOH and 1-Octanol and Acetic acid and Myritol and Transcutol | – | – | – | – | 300 nm | 90000 M⁻¹ cm⁻¹ | 1176 | at 300 nm | at 300 nm | absorb in UVB and UVA | – |
| CCCCCCCCCCCCc1ccc(-c2nnc(-c3ccc(-c4nnc(-c5ccc(CCCCCCCCCCCC)cc5)c(-c5ccc(CCCCCCCCCCCC)cc5)n4)cc3)nc2-c2ccc(CCCCCCCCCCCC)cc2)cc1 [WP107, 1,4-bis[5,6-bis(4-dodecylphenyl)-1,2,4-triazine-3-yl]benzene] | – | 89.27 | 84.75 | 1% | 1% | DCM and CHCl3 and Toluene and Octanol and Ethyl acetate and DMSO | EtOH and Acetic acid and MeOH and Myritol and Transcutol | 95000 M⁻¹ cm⁻¹ | 783 | at 335 nm | at 335 nm | 300 nm | 92000 M⁻¹ cm⁻¹ | 757 | at 300 nm | at 300 nm | absorb in UVB and UVA | Solubility (%) ([3]; excipient Arlasolve DMI ® (dimethyl isosorbide)): 1% |
| CC(C)CCC(C)(C)c1ccc(-c2nnc(-c3ccc(-c4nnc(-c5ccc(C(C)(C)CCC(C)C)cc5)c(-c5ccc(C(C)(C)CCC(C)C)cc5)n4)cc3)nc2-c2ccc(C(C)(C)CCC(C)C)cc2)cc1 [WP151] | 67.2 | 76.16 | 70.15 | 5% | 0.5% | – | – | 60500 M⁻¹ cm⁻¹ | 611 | at 340 nm | at 340 nm | 340 nm | – | – | – | – | absorb in UVB and UVA | Solubility (%) ([3]; excipient Isopropyl adipate): 1%; Solubility (%) ([3]; excipient Myritol 331 ® (cocoglycerides)): 2% |
